Experimental data from the METLIN SMRT retention time set (Domingo-Almenara et al. 2019).

Assay: gradient 5% acetonitrile 3 min, to 50% in 2 min, to 85% in 15 min, held 3 min, 100 µL/min
Settings: column: Zorbax Extend-C18 2.1 x 50 mm; eluents: water / acetonitrile, 0.1% formic acid
How it was run: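 Pure standards were run in mixtures of ~100 molecules by HPLC coupled to a quadrupole time-of-flight mass spectrometer. The column was a Zorbax Extend-C18 (2.1 × 50 mm, 1.8 μm) at 100 μL/min, with water and acetonitrile each containing 0.1% formic acid, in positive and negative ionization mode. Dead and dwell volumes were 40 μL and 900 μL. Retention time was taken from computationally picked adduct peaks, each manually inspected, with data collected over 3 months.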

Row | Structure (SMILES) | RP-LC retention time [s]
1 | Cn1c(=O)sc2cc(S(=O)(=O)N3CCC(C(=O)Nc4ccc5c(c4)OCO5)CC3)ccc21 | 817
2 | Cc1cc2nn(CC(=O)N3CCC(C)CC3)c(=O)n2c(-c2cccc(Cl)c2)n1 | 894
3 | CCOc1ccccc1NC(=O)c1c(O)c2cccnc2n(-c2ccc(F)cc2)c1=O | 1280
4 | COc1cc(N)c(Cl)cc1C(=O)CCC1CCN(CCNS(C)(=O)=O)CC1 | 673
5 | COc1ccc(NC(=O)Nc2ccc(-c3cn4ccc(C)nc4n3)cc2)cc1 | 626
6 | CCc1ccc(CN2CCC3(CC2)CC(O)(COC)CCO3)cc1 (stereo not drawn) | 575
7 | Cc1sc(NC(=O)c2ccccc2Cl)nc1-c1ccc2c(c1)NC(=O)C(C)O2 (stereo not drawn) | 914
8 | CN(C)c1ccc(C(=O)N2CCCC2c2nc(-c3ccc(F)cc3)no2)cc1 (stereo not drawn) | 1020
9 | CCC1CN2C=Nc3oc(C)c(C(=O)Nc4ccc(F)c(Cl)c4)c3C2=N1 (stereo not drawn) | 704
10 | Cc1cc(NC(=O)C2CCCN(c3ccc(-c4ccc(Cl)cc4)nn3)C2)no1 (stereo not drawn) | 686
11 | CCOc1cccc(-c2noc(-c3nn(-c4cccc(F)c4)ccc3=O)n2)c1 | 978
12 | O=C(CCn1nnc2cc(-c3noc(CCC4CCCC4)n3)ccc21)N1CCCC1 | 1050
13 | CC12CCC(C(=O)Nc3ccc(Cl)cn3)(OC1=O)C2(C)C (stereo not drawn) | 890
14 | Cc1ccc(NS(=O)(=O)c2cc(-c3[nH]ncc3C(=O)N3CCCC3)oc2C)c(F)c1 | 738
15 | Cc1cc(NC(=O)C2CCN(C(=O)CSc3nnnn3C)CC2)no1 | 607
16 | O=C1COc2ccc(S(=O)(=O)N3CCC(C(=O)Nc4ccc(F)cc4F)CC3)cc2N1 | 763
17 | Cc1noc(-c2ccc(=O)n(Cc3ccccc3F)n2)n1 | 794
18 | CCOC(=O)c1[nH]c(C)c(CN(Cc2ccco2)C(=O)Nc2ccc(F)cc2)c1C | 936
19 | CC(=O)N1CCC(NC(=O)Nc2cccc(C)c2)C1 (stereo not drawn) | 635
20 | CC(=O)N1c2ccc(S(=O)(=O)N3CCCCCC3)cc2CC1C(=O)NCCCc1ccccc1 (stereo not drawn) | 975
21 | CN(C)[C@@H]1CN(C(=O)Cn2c(=O)oc3cc(Cl)ccc32)C[C@H]1CO | 596
22 | Cc1ccc(NC(=O)N2CCC(CCN)CC2)cc1F | 612

Row | Structure (SMILES) | RP-LC retention time [s]
23 | COc1ccc(Cn2nnc3cc(C(=O)NCc4ccco4)ccc32)cc1 | 818
24 | CCCOc1nc2ccccc2nc1N1CCCC(C(=O)Nc2ccccc2)C1 (stereo not drawn) | 1250
25 | CCOC(=O)c1c(C)c(CCC(=O)N2CCN(c3ccccn3)CC2)c(C)n1C | 646
26 | COc1ccc(-c2cn3ccn(-c4ccc5c(c4)CCC5)c(=O)c3n2)cc1OC | 846
27 | Cc1ccc(NS(=O)(=O)c2cc(-c3[nH]ncc3C(=O)N3CCCCC3)oc2C)cc1C | 821
28 | CC(C)CC(=O)N1CCC2(CC1)C(=O)N(C)c1ccccc12 | 766
29 | CCS(=O)(=O)N1CCCN(C2=NS(=O)(=O)C(c3ccc(C)cc3)=C2C)CC1 | 827
30 | Cc1ccc(C)c(CNC(=O)c2cc(-c3ccncc3)cn2C)c1 | 679
31 | COc1ccc(NC(=O)CSc2cc(N3CCN(c4ccccc4OC)CC3)ncn2)cc1Cl | 981
32 | CC[C@@]1(O)C[C@H](OC2CC(N(C)C)C(O)C(C)O2)c2c(cc3c(c2O)C(=O)c2c(O)ccc(O)c2C3=O)[C@H]1C(=O)OC (stereo partly drawn) | 717
33 | COc1ccc(C(=O)CC(SCCO)c2ccc(Cl)cc2)cc1 (stereo not drawn) | 866
34 | O=C(Cn1cc(-c2ccccc2)c2ncnc(N3CCOCC3)c21)NC1CCCCC1 | 753
35 | CSc1nnc(Cn2c(=O)sc3ccccc32)n1-c1cccc(C(F)(F)F)c1 | 824
36 | Cc1ccc(-c2cc(C(=O)NC3CC3)n(C)c2)cc1 | 915
37 | Cc1ccc(C(=O)NCC2CC(=O)N(c3ccc(Cl)cc3)C2)cc1[N+](=O)[O-] (stereo not drawn) | 822
38 | C/C=C1\C2C=C(C)C[C@]1(N)c1ccc(=O)[nH]c1C2 | 578
39 | C=CCNc1ncnc2sc(SC)nc12 | 855
40 | Cc1nc(-c2ccc(N3CCN(C(=O)c4ccco4)CC3)nc2)sc1C | 759
41 | CN(Cc1ccccc1)C(=O)Cn1cnc2nc3c(cc2c1=O)CCCC3 | 725
42 | O=C(NCc1ccc(F)cc1)C1CC(=O)N(c2n[nH]c3cccc(F)c23)C1 (stereo not drawn) | 707
43 | CC1Oc2ccc(S(=O)(=O)N3CCC(C(=O)NCc4ccc5c(c4)OCO5)CC3)cc2NC1=O (stereo not drawn) | 755
44 | O=C(Nc1ccc2c(c1)OCCO2)c1cc(-c2ccccn2)n[nH]1 | 648

Row | Structure (SMILES) | RP-LC retention time [s]
45 | Cc1noc(-c2ccc(NC(=O)c3cccnc3)cc2)n1 | 824
46 | COc1cc(-c2nc3ncccn3c2Nc2cc(C)ccc2C)ccc1O | 672
47 | O=S(=O)(c1cccc(C(F)(F)F)c1)N1CCc2nc(-c3ccccc3)ncc2C1 | 1140
48 | COc1ccc(-n2ccc(=O)c(-c3nc(-c4cc(OC)cc(OC)c4)no3)n2)cc1 | 887
49 | COCC(=O)N1C[C@@H]2CCCN3CCC[C@@H]([C@H]23)[C@H]1CCCC(=O)NCC1CC1 | 566
50 | O=C(c1ccc(Cn2cncn2)cc1)N1CCN(c2ccccc2F)CC1 | 712
51 | CSc1ccc(CNC(=O)Cc2c(C(=O)O)c(C)cn2C)cc1 | 757
52 | COc1ccc(C2(C(=O)N3CCN(S(=O)(=O)c4c(C)nn(C(C)C)c4C)CC3)CC2)cc1 | 889
53 | Cc1cc(C)n(-c2nc(C)c(C(=O)N(CCO)Cc3ccccc3)s2)n1 | 859
54 | CCc1nc(-c2ccc3c(c2)CCN3C(=O)Cc2cc(OC)cc(OC)c2)no1 | 996
55 | CCOC(=O)c1c(C)[nH]c(CCC(=O)NC2CCCC2)c1C | 780
56 | CCCN(CC1CCOC1)C(=O)Nc1cccc(F)c1 (stereo not drawn) | 684
57 | Cn1nc(-c2nc(C3CC3)no2)c2c1CCN(C(=O)Nc1ccccc1)C2 | 809
58 | O=C(Cn1c2ccccc2c2ncn(Cc3nc(C4CC4)no3)c(=O)c21)NC1CCCCC1 | 834
59 | Cc1cc(=O)n(CC(=O)Nc2cccc(Cl)c2)c(N(C)Cc2ccccc2)n1 | 797
60 | O=C(Cn1cnc2nc(N3CCCC(C(=O)NC4CC4)C3)sc2c1=O)Nc1cccc(F)c1 (stereo not drawn) | 655
61 | Cc1ccc(-c2csc(Cc3nc(-c4ccc5c(c4)OCO5)no3)n2)cc1 | 1210
62 | COC(=O)c1cnn2c(C)c(Cc3ccc(F)cc3)c(C)nc12 | 845
63 | COc1ccccc1C(=O)N1C[C@H](c2nc(-c3ccccc3)no2)[C@@H](C)C1 | 820
64 | CCOc1ccc(CC(=O)N2CCCC2c2nc(-c3cccc(C)c3)no2)cc1 (stereo not drawn) | 1120
65 | Cc1ccc(NC(=O)C2CCN(S(=O)(=O)c3ccc4c(c3)sc(=O)n4C(C)C)CC2)nc1 | 794
66 | CCN1C(=O)CCC2(C(=O)NCCc3c[nH]c4ccccc34)CCCC=C12 (stereo not drawn) | 743

Row | Structure (SMILES) | RP-LC retention time [s]
67 | Cc1nc2c(sc3nc(-c4ccccc4)ccc32)c(=O)n1CC(=O)Nc1ccc(C(F)(F)F)cc1 | 1280
68 | CCC(CN1CCOCC1)NC(=O)c1c2c(cn(-c3ccc(F)cc3)c1=O)C(=O)CC(C)(C)C2 (stereo not drawn) | 657
69 | COc1nccnc1NC1CCN(C(=O)c2cccnc2)CC1 | 692
70 | CC1=C(c2cccc(Cl)c2)S(=O)(=O)N=C1N1CCCN(C(=O)CC(C)C)CC1 | 868
71 | CCOc1ccc(S(=O)(=O)N2CCC(C(=O)Nc3ccc(OC)cc3OC)CC2)cc1C | 1010
72 | CCc1cc(C(=O)Nc2ccccc2F)nc2ccnn12 | 1060
73 | COc1ccc(NC(=O)C2c3ccccc3C(=O)N3CCc4ccccc4C23)cc1OC (stereo not drawn) | 762
74 | Cc1noc(C)c1CC(=O)NCc1cc(-c2ccc3c(c2)OCO3)on1 | 689
75 | Cc1cc(C(=O)Nc2cccn3c(C4CCC4)nnc23)no1 | 724
76 | CCC(C)NC(=O)CCc1c(-c2ccc(Cl)cc2)nc2ccccn12 (stereo not drawn) | 653
77 | Cc1nc(CSCC(=O)Nc2ccc(Cl)cc2)cs1 | 778
78 | COc1ccc(S(=O)(=O)N2CCC(c3cnn(-c4ccc(C)cc4)c3)CC2)cc1 | 1110
79 | CC(C)(C)c1csc(-c2csc(S(=O)(=O)NCc3ccccc3Cl)c2)n1 | 1300
80 | Cc1ccc(OCc2nc(C3CCNC3)no2)cc1 (stereo not drawn) | 641
81 | Cc1ccc(-c2cc3c(=O)n(Cc4nc(-c5ccccc5Cl)no4)ncn3n2)c(C)c1 | 1220
82 | Cc1ccc(Nc2c(-c3ccccc3O)nc3ccc(C)cn23)cc1 | 774
83 | Cn1cc(S(=O)(=O)N2CCC(C(=O)NCc3ccccc3Cl)CC2)cc1C(=O)N1CCCC1 | 752
84 | O=C(CC1CCCCN1S(=O)(=O)c1ccccc1)Nc1cc(F)ccc1F (stereo not drawn) | 887
85 | COCCN1CC(CO)C2(CCN(Cc3ccc(OC)cc3OC)CC2)C1 (stereo not drawn) | 540
86 | O=C(NCc1cccs1)C1CCN(Cc2cc3ccccc3n2Cc2ccc(F)cc2)CC1 | 783
87 | Cn1nc(C(=O)N2CCOCC2)c2c1CCN(C(=O)CCC(=O)NC1CCCCCC1)C2 | 652
88 | O=C(c1cn(-c2cc(N3CCSCC3)ncn2)cn1)N1CCSCC1 | 774
